Assay results from US4345938A, “Herbicidal 2-haloacetanilides” (Monsanto Company, priority 1980, dated 1982).
Like-named read-outs stand apart in the source and are kept apart here.

How the values were obtained:
[1] = system: Rice; assay: Greenhouse transplant rice test, rice injury; type: in vivo, Rice (Bluebelle); conditions: Oryza sativa, about 3 WAT, read-out: Percent Inhibition, Rice
Text: (§1) The test procedure used in this greenhouse test is as follows: Ray silt loam top soil containing about 0.05% by weight of krillium and sifted through a […] screen is fumigated about 5-10 days prior to use. Pots are then filled with said Ray silt loam soil to a level to allow for a 1 in. (2.54 cm) flooding depth. Rice plants (Bluebelle) of 2 to 3 weeks age are transplanted to the pots and bulbs or seeds of the test weeds also planted in the pots. The pots are then flooded and the test chemical applied to the surface of the flood water. The flood water is reduced to allow for germination of the Echinochloa crus-galli (barnyardgrass) seed and subsequently reflooded and maintained in that condition. Observations of percent inhibition using a scale of 0-100% are made about 3 weeks after transplant (WAT).
(§2) The test data in Table III for all compounds was obtained under identical test conditions. The weeds used in the tests herein have the following abbreviations in the tables: Echinochloa crus-galli (EC), Monochloria vaginalis (MV), Cyperus Serotinus (CS), Eleocharis Kuroguwai (EK) and Sagittaria trifolia (ST).

[2] = system: Eleocharis kuroguwai; assay: Greenhouse transplant rice test, EK; type: in vivo; conditions: about 3 WAT, read-out: Percent Inhibition, EK
Text: as §1, §2

[3] = system: Sagittaria trifolia; assay: Greenhouse transplant rice test, ST; type: in vivo; conditions: Sagittaria trifolia, about 3 WAT, read-out: Percent Inhibition, ST
Text: as §1, §2

[4] = system: Rice; assay: Field transplant rice test, applied 0 DAT, rice injury; type: in vivo; conditions: Oryza sativa, 0 h, read-out: Percent Inhibition, Rice; for inhibition at 375 g/ha: 0.375 Kg/Ha; for inhibition at 750 g/ha: 0.75 Kg/Ha; for inhibition at 1500 g/ha: 1.5 Kg/Ha; for inhibition at 3000 g/ha: 3.0 Kg/Ha
In short: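 Field test in transplant rice with herbicide applied as granules at transplanting (0 DAT), at rates from 3.0 kg/ha down to 0.375 kg/ha. Injury was rated weekly from 2 to 6 weeks after transplant. Granules held 2.5% or 5.0% herbicide by weight, depending on compound.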

[5] = system: Cyperus serotinus; assay: Field transplant rice test, applied 0 DAT, CS; type: in vivo; conditions: 0 h, read-out: Percent Inhibition, CS; for inhibition at 375 g/ha: 0.375 Kg/Ha; for inhibition at 750 g/ha: 0.75 Kg/Ha; for inhibition at 1500 g/ha: 1.5 Kg/Ha; for inhibition at 3000 g/ha: 3.0 Kg/Ha
In short: (§3)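 Field test in transplanted rice, herbicide applied as granules (2.5% or 5.0% w/w active) at transplanting (0 DAT). Rates from 3.0 kg/ha down to 0.375 kg/ha. Weed control observed weekly from 2 to 6 weeks after transplant, reported at 2, 4 and 6 WAT.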

[6] = system: Sagittaria trifolia; assay: Field transplant rice test, applied 0 DAT, ST; type: in vivo; conditions: 0 h, read-out: Percent Inhibition, ST; for inhibition at 375 g/ha: 0.375 Kg/Ha; for inhibition at 750 g/ha: 0.75 Kg/Ha; for inhibition at 1500 g/ha: 1.5 Kg/Ha; for inhibition at 3000 g/ha: 3.0 Kg/Ha
In short: as §3

[7] = system: Rice; assay: Field transplant rice test, applied 9 DAT, rice injury; type: in vivo; conditions: Oryza sativa, 216 h, read-out: Percent Inhibition, Rice; for inhibition at 375 g/ha: 0.375 Kg/Ha; for inhibition at 750 g/ha: 0.75 Kg/Ha; for inhibition at 1500 g/ha: 1.5 Kg/Ha; for inhibition at 3000 g/ha: 3.0 Kg/Ha
In short: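 Field transplant rice; herbicides applied as granules (2.5% by weight active, 5.0% for one prior-art comparator) at 9 days after transplant. Rates from 3.0 kg/ha (2.67 lb/A) down to 0.375 kg/ha (0.34 lb/A). Crop injury observed weekly from 3 to 7 weeks after transplant.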

[8] = system: Cyperus serotinus; assay: Field transplant rice test, applied 9 DAT, CS; type: in vivo; conditions: for inhibition at 375 g/ha / inhibition at 750 g/ha / inhibition at 1500 g/ha / inhibition at 3000 g/ha: Cyperus serotinus, 216 h, read-out: Percent Inhibition, CS; for inhibition at 375 g/ha: 0.375 Kg/Ha; for inhibition at 750 g/ha: 0.75 Kg/Ha; for inhibition at 1500 g/ha: 1.5 Kg/Ha; for inhibition at 3000 g/ha: 3.0 Kg/Ha
In short: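 Field test in transplanted rice, herbicides applied as granules (2.5% or 5.0% w/w active) 9 days after transplant at 3.0 down to 0.375 kg/ha. Weed control observed weekly from 3 to 7 weeks after transplant.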

CCCCOCN(C(=O)CCl)c1c(CC)cccc1CC [Compound A, 2',6'-diethyl-N-(n-butoxymethyl)-2-chloroacetanilide]
inhibition at 280 g/ha ([1]; 0.28 Kg/Ha): 5%
inhibition at 560 g/ha ([1]; 0.56 Kg/Ha): 10%
inhibition at 1120 g/ha ([1]; 1.12 Kg/Ha): 10%
inhibition at 2240 g/ha ([1]; 2.24 Kg/Ha): 15%
inhibition at 280 g/ha ([2]; 0.28 Kg/Ha): 50%
inhibition at 560 g/ha ([2]; 0.56 Kg/Ha): 100%
inhibition at 1120 g/ha ([2]; 1.12 Kg/Ha): 100%
inhibition at 2240 g/ha ([2]; 2.24 Kg/Ha): 100%
inhibition at 280 g/ha ([3]; 0.28 Kg/Ha): 15%
inhibition at 560 g/ha ([3]; 0.56 Kg/Ha): 45%
inhibition at 1120 g/ha ([3]; 1.12 Kg/Ha): 30%
inhibition at 2240 g/ha ([3]; 2.24 Kg/Ha): 15%
inhibition at 375 g/ha ([4]; 2 WAT): 8%
inhibition at 375 g/ha ([4]; 4 WAT): 10%
inhibition at 375 g/ha ([4]; 6 WAT): 7%
inhibition at 750 g/ha ([4]; 2 WAT): 2%
inhibition at 750 g/ha ([4]; 4 WAT): 0%
inhibition at 750 g/ha ([4]; 6 WAT): 0%
inhibition at 1500 g/ha ([4]; 2 WAT): 8%
inhibition at 1500 g/ha ([4]; 4 WAT): 23%
inhibition at 1500 g/ha ([4]; 6 WAT): 5%
inhibition at 3000 g/ha ([4]; 2 WAT): 10%
inhibition at 3000 g/ha ([4]; 4 WAT): 2%
inhibition at 3000 g/ha ([4]; 6 WAT): 3%
inhibition at 375 g/ha ([5]; 2 WAT): 67%
inhibition at 375 g/ha ([5]; 4 WAT): 67%
inhibition at 375 g/ha ([5]; 6 WAT): 63%
inhibition at 750 g/ha ([5]; 2 WAT): 95%
inhibition at 750 g/ha ([5]; 4 WAT): 93%
inhibition at 750 g/ha ([5]; 6 WAT): 93%
inhibition at 1500 g/ha ([5]; 2 WAT): 90%
inhibition at 1500 g/ha ([5]; 4 WAT): 82%
inhibition at 1500 g/ha ([5]; 6 WAT): 77%
inhibition at 3000 g/ha ([5]; 2 WAT): 73%
inhibition at 3000 g/ha ([5]; 4 WAT): 68%
inhibition at 3000 g/ha ([5]; 6 WAT): 50%
inhibition at 375 g/ha ([6]; 2 WAT): 37%
inhibition at 375 g/ha ([6]; 4 WAT): 22%
inhibition at 375 g/ha ([6]; 6 WAT): 7%
inhibition at 750 g/ha ([6]; 2 WAT): 52%
inhibition at 750 g/ha ([6]; 4 WAT): 20%
inhibition at 750 g/ha ([6]; 6 WAT): 15%
inhibition at 1500 g/ha ([6]; 2 WAT): 60%
inhibition at 1500 g/ha ([6]; 4 WAT): 33%
inhibition at 1500 g/ha ([6]; 6 WAT): 20%
inhibition at 3000 g/ha ([6]; 2 WAT): 42%
inhibition at 3000 g/ha ([6]; 4 WAT): 33%
inhibition at 3000 g/ha ([6]; 6 WAT): 12%
inhibition at 375 g/ha ([7]; 3 WAT): 10%
inhibition at 375 g/ha ([7]; 5 WAT): 8%
inhibition at 375 g/ha ([7]; 7 WAT): 8%
inhibition at 750 g/ha ([7]; 3 WAT): 13%
inhibition at 750 g/ha ([7]; 5 WAT): 3%
inhibition at 750 g/ha ([7]; 7 WAT): 7%
inhibition at 1500 g/ha ([7]; 3 WAT): 12%
inhibition at 1500 g/ha ([7]; 5 WAT): 7%
inhibition at 1500 g/ha ([7]; 7 WAT): 5%
inhibition at 3000 g/ha ([7]; 3 WAT): 12%
inhibition at 3000 g/ha ([7]; 5 WAT): 7%
inhibition at 3000 g/ha ([7]; 7 WAT): 5%
inhibition at 375 g/ha ([8]; 3 WAT): 80%
inhibition at 375 g/ha ([8]; 5 WAT): 33%
inhibition at 375 g/ha ([8]; 7 WAT): 67%
inhibition at 750 g/ha ([8]; 3 WAT): 70%
inhibition at 750 g/ha ([8]; 5 WAT): 50%
inhibition at 750 g/ha ([8]; 7 WAT): 38%
inhibition at 1500 g/ha ([8]; 3 WAT): 100%
inhibition at 1500 g/ha ([8]; 5 WAT): 100%
inhibition at 1500 g/ha ([8]; 7 WAT): 100%
inhibition at 3000 g/ha ([8]; 3 WAT): 88%
inhibition at 3000 g/ha ([8]; 5 WAT): 100%
inhibition at 3000 g/ha ([8]; 7 WAT): 100%
selectivity factor (GR15/GR85), CS in transplant rice ([8]; between 3 WAT and 7 WAT): 2
